Source: patent US9156845B2, “4-(substituted amino)-7H-pyrrolo[2,3-d] pyrimidines as LRRK2 inhibitors” (Pfizer Inc., priority 2012, dated 2015)

Key:
mutant G2019S LRRK2 = mutant G2019S LRRK2 (Homo sapiens (Human), UniProt Q5S007, G2019S); assay: LRRK2 Lantha Screen kinase assay, mutant enzyme; format: biochemical; settings: geometric mean of 2-5 determinations unless otherwise indicated (a: >=6 determinations; b: single determination)
[1] = molecular target: GST-tagged truncated LRRK2 (Homo sapiens (Human), UniProt Q5S007); assay: LRRK2 Lantha Screen kinase assay; format: biochemical; settings: geometric mean of 2-5 determinations unless otherwise indicated (a: >=6 determinations; b: single determination); read-out: LRRK2 WT IC50
Sequence of GST-tagged truncated LRRK2 (Q5S007 970-2527): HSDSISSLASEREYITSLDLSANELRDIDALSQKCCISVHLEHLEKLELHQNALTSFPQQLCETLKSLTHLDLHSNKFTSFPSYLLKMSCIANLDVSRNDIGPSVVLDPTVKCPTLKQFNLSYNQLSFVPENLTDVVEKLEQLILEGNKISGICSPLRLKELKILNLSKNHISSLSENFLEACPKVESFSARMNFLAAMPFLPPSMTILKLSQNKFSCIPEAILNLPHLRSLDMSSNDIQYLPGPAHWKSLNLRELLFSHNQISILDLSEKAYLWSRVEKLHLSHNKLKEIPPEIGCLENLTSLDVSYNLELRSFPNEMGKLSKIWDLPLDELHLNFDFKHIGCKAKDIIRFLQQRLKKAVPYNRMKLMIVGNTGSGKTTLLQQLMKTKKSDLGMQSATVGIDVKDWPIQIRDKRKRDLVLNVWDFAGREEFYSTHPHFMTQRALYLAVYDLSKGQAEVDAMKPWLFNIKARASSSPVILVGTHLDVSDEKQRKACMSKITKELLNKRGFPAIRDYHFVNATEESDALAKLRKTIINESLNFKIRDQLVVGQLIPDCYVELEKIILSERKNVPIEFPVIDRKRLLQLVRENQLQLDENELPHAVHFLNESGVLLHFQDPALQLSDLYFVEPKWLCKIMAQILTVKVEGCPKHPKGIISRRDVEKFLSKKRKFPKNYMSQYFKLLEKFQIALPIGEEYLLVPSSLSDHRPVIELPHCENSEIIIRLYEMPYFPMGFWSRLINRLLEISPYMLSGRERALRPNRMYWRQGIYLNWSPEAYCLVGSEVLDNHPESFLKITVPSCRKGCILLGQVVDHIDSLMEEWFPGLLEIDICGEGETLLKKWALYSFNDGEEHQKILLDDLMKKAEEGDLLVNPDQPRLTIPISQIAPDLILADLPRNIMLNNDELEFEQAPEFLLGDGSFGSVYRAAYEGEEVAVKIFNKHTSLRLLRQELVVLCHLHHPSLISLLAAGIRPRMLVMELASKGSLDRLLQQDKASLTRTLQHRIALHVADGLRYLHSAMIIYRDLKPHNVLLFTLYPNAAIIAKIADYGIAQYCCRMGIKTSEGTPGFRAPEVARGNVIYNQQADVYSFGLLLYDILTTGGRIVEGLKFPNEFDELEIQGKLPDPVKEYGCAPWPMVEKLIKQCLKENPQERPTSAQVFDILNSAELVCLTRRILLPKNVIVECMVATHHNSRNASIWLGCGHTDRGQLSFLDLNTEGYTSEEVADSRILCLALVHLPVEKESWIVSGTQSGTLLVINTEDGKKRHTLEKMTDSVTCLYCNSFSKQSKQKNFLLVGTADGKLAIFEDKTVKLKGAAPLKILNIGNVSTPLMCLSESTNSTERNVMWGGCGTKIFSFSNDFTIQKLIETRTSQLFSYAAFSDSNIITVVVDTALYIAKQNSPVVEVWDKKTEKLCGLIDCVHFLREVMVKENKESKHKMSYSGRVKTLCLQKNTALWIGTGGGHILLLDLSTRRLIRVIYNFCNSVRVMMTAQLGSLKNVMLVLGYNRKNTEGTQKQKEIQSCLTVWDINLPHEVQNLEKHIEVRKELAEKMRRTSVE
Description: LRRK2 kinase activity was measured using Lantha Screen technology from Invitrogen. GST-tagged truncated LRRK2 from Invitrogen (Cat # PV4874) was incubated with a fluorescein-labeled peptide substrate based upon ezrin/radixin/moesin (ERM), also known as LRRKtide (Invitrogen cat #PR8976A), in the presence of a dose response of compound. Upon completion, the assay was stopped and detected with a terbium labeled anti-phospho-ERM antibody (Invitrogen, cat #PR8975A). […] Aliquots (3.5 μL) of the 100% DMSO dose response were mixed with 46.5 μL water then 1 μL of this mixture was added to the 3 μL substrate mix in the 384-well plate. The kinase reaction was started with 3 μL of a working solution of LRRK2 enzyme at a concentration of 4 μg/mL. […] The reaction was allowed to progress at room temperature for two hours and then stopped with the addition of 7 μL of detection buffer (20 mM Tris pH 7.6, 0.01% NP-40, 0.02% NaN3, 6 mM EDTA with 2 nM terbium labeled anti-phospho-ERM).

Sequence of mutant G2019S LRRK2 (Q5S007 970-2527 G2019S): as the sequence (Q5S007 970-2527) above, with G1050S counted along it

Row | Compound | IC50 (mutant G2019S LRRK2) | IC50 [1]
1 | Cc1cnc(Cl)c(-c2c[nH]c3ncnc(N4CCC[C@H](C)C4)c23)c1 [Example 59, 5-(2-chloro-5-methylpyridin-3-yl)-4-[(3S)-3-methylpiperidin-1-yl]-7H-pyrrolo[2,3-d]pyrimidine] | 30 nM | 30 nM
2 | N#Cc1ccccc1-c1c[nH]c2ncnc(N3CCOCC3)c12 [Example 82, 2-[4-(morpholin-4-yl)-7H-pyrrolo[2,3-d]pyrimidin-5-yl]benzonitrile] | 148 nM | 95 nM
3 | C[C@H]1CN(c2ncnc3[nH]cc(-c4cnn(C)c4)c23)CCO1 [Example 121, 4-[(2S)-2-methylmorpholin-4-yl]-5-(1-methyl-1H-pyrazol-4-yl)-7H-pyrrolo[2,3-d]pyrimidine] | 59 nM | 57 nM
4 | C[C@H]1CCCN(c2ncnc3[nH]cc(-c4cccc(S(N)(=O)=O)c4)c23)C1 [Example 46, 3-{4-[(3S)-3-methylpiperidin-1-yl]-7H-pyrrolo[2,3-d]pyrimidin-5-yl}benzenesulfonamide] | 33 nM | 24 nM
5 | N#Cc1cccc(-c2c[nH]c3ncnc(N4CCOC(C#N)C4)c23)c1 (stereo not drawn) [Example 209, 4-[5-(3-cyanophenyl)-7H-pyrrolo[2,3-d]pyrimidin-4-yl]morpholine-2-carbonitrile] | 336 nM | 42.2 nM
6 | N#Cc1cccc(-c2c(C(F)F)[nH]c3ncnc(N4CCOCC4)c23)c1 [Example 198, 3-[6-(Difluoromethyl)-4-(morpholin-4-yl)-7H-pyrrolo[2,3-d]pyrimidin-5-yl]benzonitrile] | 1080 nM | 127 nM
7 | Fc1ccc(-c2c[nH]c3ncnc(N4CCOCC4)c23)cc1 [Example 99, 5-(4-fluorophenyl)-4-(morpholin-4-yl)-7H-pyrrolo[2,3-d]pyrimidine] | 154 nM | 95 nM
8 | Cc1noc(C2CN(c3ncnc4[nH]cc(-c5cccc(C#N)c5)c34)CCO2)n1 (stereo not drawn) [Example 110, 3-{4-[2-(3-methyl-1,2,4-oxadiazol-5-yl)morpholin-4-yl]-7H-pyrrolo[2,3-d]pyrimidin-5-yl}benzonitrile] | 176 nM | 20 nM
9 | N#Cc1cccc(-c2c[nH]c3ncnc(N4CCC(=O)CC4)c23)c1 [Example 132, 3-[4-(4-oxopiperidin-1-yl)-7H-pyrrolo[2,3-d]pyrimidin-5-yl]benzonitrile] | 223 nM | 66 nM
10 | C[C@H]1CCCN(c2ncnc3[nH]cc(-c4cccc5[nH]ncc45)c23)C1 [Example 48, 5-(1H-indazol-4-yl)-4-[(3S)-3-methylpiperidin-1-yl]-7H-pyrrolo[2,3-d]pyrimidine] | 14 nM | 10 nM
11 | NC(=O)C1CCCN(c2ncnc3[nH]cc(-c4ccccc4)c23)C1 (stereo not drawn) [Example 13, 1-(5-phenyl-7H-pyrrolo[2,3-d]pyrimidin-4-yl)piperidine-3-carboxamide] | 39 nM | 41 nM
12 | Cn1cc(-c2c[nH]c3ncnc(N4CCOCC4)c23)nc1C#N [Example 220, 1-methyl-4-[4-(morpholin-4-yl)-7H-pyrrolo[2,3-d]pyrimidin-5-yl]-1H-imidazole-2-carbonitrile] | 14.7 nM | 7.47 nM
13 | Cn1cc(-c2c[nH]c3ncnc(N4CCOC(CO)C4)c23)cn1 (stereo not drawn) [Example 124, {4-[5-(1-methyl-1H-pyrazol-4-yl)-7H-pyrrolo[2,3-d]pyrimidin-4-yl]morpholin-2-yl}methanol] | 80 nM | 77 nM
14 | OCc1cc(-c2c[nH]c3ncnc(N4CCOCC4)c23)ccc1F [Example 98, {2-fluoro-5-[4-(morpholin-4-yl)-7H-pyrrolo[2,3-d]pyrimidin-5-yl]phenyl}methanol] | 135 nM | 70 nM
15 | C[C@H]1CCCN(c2ncnc3[nH]cc(-c4cccc(O)c4)c23)C1 [Example 58, 3-{4-[(3S)-3-methylpiperidin-1-yl]-7H-pyrrolo[2,3-d]pyrimidin-5-yl}phenol] | 12 nM | 9 nM
